Data set [1] relates to Male C57BL/6J mice on a high-fat, high carbohydrate diet. Put plainly: High fat diet-induced steatosis and liver function in mice (histology, liver triglycerides, circulating AST/ALT). Type of data set: in vivo. The following applies: vs vehicle. Here is the method:
(§1) Male C57BL/6J mice (8-10 weeks of age) were placed on a high-fat, high carbohydrate diet (F3282, Bio-Serv) for the duration for the experiments. After 6 weeks of the special diet, mice were intraperitoneally injected 2 times per week with 25 μg of dextran (vehicle) or 25 μg of LNFPIII conjugated with dextran (LNFPIII-dex). A second cohort was treated with 0.9% NaCl or SEA dissolved in 0.9% NaCl (25 μg/mouse/twice a week). Metabolic studies started 4 weeks after LNFPIII or SEA treatment and were conducted after 6 hrs of fasting. Animals were sacrificed at the 6th week of treatment for serum and tissue collection. Most experiments were repeated in two cohorts (n=4-7/treatment). Body weight and food intake were monitored weekly.
Circulating levels of ALT and AST, markers of overall liver function, were measured using commercial kits as described in Liu et al. (JBC 2011; 286:1237-47).
The Dana Farber/Harvard Cancer Center Research Pathology Cores provided all histological services and preliminary assessments by a pathologist. Briefly, tissues were collected from animals and fixed in 10% formalin (liver) for 48 hours. Fixed samples were rinsed in PBS and sent to the histology core to be paraffin embedded, sectioned, and stained with hematoxylin and eosin according to standard procedures. A staff pathologist analyzed the samples for signs of inflammation, fatty liver, fibrosis, and other pathologies associated with the liver.
In this example, the ability of LNFPIII or SEA to prevent high fat diet-induced steatosis and preserve liver function was examined. Mice were injected with either vehicle (dextran, 25 μg), LNFPIII conjugated to dextran (25 μg), or SEA twice a week (n=5 for each group) as described in the Methods section.
To determine whether overall liver function was affected by LNFPIII treatment, circulating levels of AST and ALT were also examined.

A further data set relates to livers of mice. Conditions: mouse, in vivo.
Another data set deals with FXRα−/− mice. Kind of data set: LNFPIII treatment of FXRα−/− mice (liver mRNA, hepatic triglyceride, serum AST/ALT). Type of data set: in vivo.
From the text: Male C57BL/6J mice (8-10 weeks of age) were purchased from The Jackson Laboratory (Bar Harbor, Me.). FXR α−/− mice (both in the C57BL/6J background) were obtained from The Jackson Laboratory. All animal studies were approved by the Harvard Medical Area Standing Committee on Animals.
as §1
Furthermore, to determine whether FXRα mediated the effects of LNFPIII on lipogenesis and fatty acid oxidation, primary hepatocytes were isolated from wild type or FXRα^−/− mice, cultured, and tested for de novo lipogenesis and fatty acid oxidation.

Data set [2] has as its system human FXRα promoter 2 (FXRα3/α4). Put plainly: Luciferase reporter assay, FXRα promoter 2, in HepG2 cells. Format: cell-based. From the text:
(§2) The upstream promoter 1 and downstream promoter 2 regions of the human FXRα gene were cloned into the pGL3-basic luciferase reporter construct and transfected into HepG2 cells in a 96-well format or primary hepatocytes in a 24-well format using a luciferase system (Promega). A β-galactosidase reporter construct was used as a transfection control. Promoters 1 and 2 of the human FXRα gene were PCR amplified and cloned into the pGL3-basic luciferase reporter (Promega). Point mutations were introduced using the site-directed mutagenesis kit (Stratagene).
To examine the signalling pathways through which LNFPIII regulates FXRα activity, the activities of luciferase reporters driven by upstream (promoter 1) or downstream (promoter 2) regulatory regions were examined in HepG2 cells (human hepatoma cells). Reporters driven by a 2 kb fragment of human FXRα promoter 1 or a 0.13 kb fragment of human FXRα promoter 2 were transfected into HepG2 cells. Twenty-four hours after transfection, cells were treated with or without LNFPIII (20 μg/ml) or SEA (2 μg/ml) for an additional 24 hours.
To gain insight into the region of promoter 2 responsible for promoter activation, the minimal LNFPIII responsive region was determined through a series of promoter deletion mutants.

Data set [3] deals with Erk. Put plainly: Immunoblot of phospho-Erk in liver lysates of treated mice. Type of data set: in vivo. Conditions: FIG. 3f. Here is the method:
FIG. 3F (top panel) is an immunoblot for levels of phosphor-Erk (p-Erk) and total Erk (t-Erk) in liver lysates prepared from vehicle or LNFPIII treated mice (n=5, showing representative 3 samples/treatment). Actin levels served as a loading control. FIG. 3F (bottom panel) is a bar graph depicting the densitometric analysis of the immunoblot from FIG. 3F (top panel). Results are presented as mean±SEM. *p<0.05.
(§3) For Western blot analyses, tissue and cell lysates were prepared in lysis buffer (20 mM Tris-HCl, 100 mM NaCl, 1 mM EDTA, NP-40, glycerol, PMSF, and DTT) in the presence of protease and phosphatase inhibitors. The four FXRα (NR1H4) isoforms were based on previous reports, which were originally designated as FXRα1/α2 and FXRβ1/β2 (Huber et al., Gene 2002; 290:35-43; Zhang et al., JBC 2003; 278:104-10). The latter were renamed FXRα3/α4 to avoid confusion with rodent FXRβ (NR1H5) (Lefebvre et al., Physiol Rev 2009; 89:147-91).
(Immunoblotting shows a protein as a band on a membrane.)

Data set [4] has as its system primary mouse hepatocytes.
Data set [5] concerns primary mouse hepatocytes. Conditions: PD98059 1 hour prior to overnight LNFPIII, FIG. 3i.
Data set [6] has as its system human FXRα promoter 1 (FXRα1/α2). Kind of data set: Luciferase reporter assay, FXRα promoter 1, in HepG2 cells. Format: cell-based. The following applies: with or without LNnT, p<0.05, FIG. 4b. Here is the method:
HepG2 cells, obtained from ATCC (#HB-8065), were cultured in Eagle's minimal essential media supplemented with non-essential amino acids, L-glutamine, sodium pyruvate, sodium bicarbonate, 10% fetal bovine serum, and antibiotics.
as §2
Both human and mouse FXRα contain two major promoters (FIG. 2c). […] To examine the signalling pathways through which LNFPIII regulates FXRα activity, the activities of luciferase reporters driven by upstream (promoter 1) or downstream (promoter 2) regulatory regions were examined in HepG2 cells (human hepatoma cells). Reporters driven by a 2 kb fragment of human FXRα promoter 1 or a 0.13 kb fragment of human FXRα promoter 2 were transfected into HepG2 cells. Twenty-four hours after transfection, cells were treated with or without LNFPIII (20 μg/ml) or SEA (2 μg/ml) for an additional 24 hours.
(Reporter assays use an easily measured gene product as a stand-in for the process of interest.)

In data set [7] the test system is Erk. Put plainly: Immunoblot of phospho-Erk in primary hepatocytes. Type of data set: cell-based, mouse. The following applies: PD98059 1 hour prior to overnight LNFPIII, FIG. 3g. Here is the method: FIG. 3G (left panel) is an immunoblot for levels of phospho-Erk (p-Erk) and total Erk (t-Erk) in primary hepatocytes treated with vehicle, LNFPIII, PD90859, or LNFPIII+PD98059. Cells were pretreated with PD98059 for 1 hour prior to overnight LNFPIII treatment. Actin levels served as a loading control. FIG. 3G (right panel) is a bar graph depicting the densitometric analysis of the immunoblot from FIG. 3G (left panel). Results are presented as mean±SEM.
FIG. 3H is an immunoblot for levels of p-Erk and t-Erk in primary hepatocytes treated with vehicle, SEA, or SEA+PD98059. Cells were pretreated with PD98059 for 1 hour prior to overnight SEA treatment. Actin levels served as a loading control.
as §3

Setting [8] is: high fat diet mice, p<0.05, FIG. 1d/1e.
[9] abbreviates: FIG. 2d, primary hepatocytes treated for 24 hours.
Setting [10] is: FIG. 2d, primary hepatocytes treated for 24 hours, p<0.05.

For lacto-N-fucopentaose III [LNFPIII], the “high fat diet-induced hepatic lipid accumulation (histology)” value in data set [1] (25 μg i.p. twice a week, 6 weeks, FIG. 1a) was “less high fat diet-induced hepatic lipid accumulation”. Moreover, the “levels of triglycerides in livers” value in data set [1] (25 μg twice a week, p<0.05, FIG. 1b) was “significantly lower levels”. Besides, in data set [1] (setting [8]), the “circulating levels of ALT” value is recorded as “significantly reduced levels” and the “circulating levels of AST” value is “significantly reduced levels”. Further, in the data set on livers of mice, the “ACC1/2 mRNA in livers” value is given as “significantly reduced”, the “Arg1 (M2 marker) mRNA in liver tissue” value is given as “significantly higher levels”, the “F4/80 mRNA in liver tissue” value is recorded as “significantly lower levels” and the “FAS mRNA in livers” value is “significantly reduced”. In the data set with livers of mice, the “IL-1β mRNA in liver tissue” value is reported as “unchanged”, the “IL-6 mRNA in liver tissue” value was “significantly lower levels”, the “Mgl1 (M2 marker) mRNA in liver tissue” value is “significantly higher levels” and the “SCD1 mRNA in livers” value is on record as “significantly reduced”. In addition, in the data set with livers of mice, the “SREBP-1c mRNA in livers” value is reported as “significantly reduced” and the “β-oxidation gene expression in livers” value is listed as “did not affect”. Besides, in the data set with FXRα−/− mice (FIG. 2i, p<0.05), the “reduction in serum ALT concentration, wild type vs FXR−/− mice” value is reported as “required FXRα expression” and the “reduction in serum AST concentration, wild type vs FXR−/− mice” value is “required FXRα expression”. Besides, the “reduction in hepatic triglyceride content, wild type vs FXR−/− mice” value in the data set with FXRα−/− mice (FIG. 2h, p<0.05) is reported as “required FXRα expression”. In the data set with FXRα−/− mice (livers, FIG. 2f), the “Acc1 mRNA expression in FXRα−/− mice” value is listed as “did not reduce”, the “Acc2 mRNA expression in FXRα−/− mice” value is reported as “did not reduce”, the “Fas mRNA expression in FXRα−/− mice” value is recorded as “did not reduce” and the “Scd1 mRNA expression in FXRα−/− mice” value was “did not reduce”. For the same compound, in the data set with FXRα−/− mice (livers, FIG. 2f), the “Srebp mRNA expression in FXRα−/− mice” value is given as “did not reduce”. Further, in data set [2] (HepG2, site-directed mutagenesis, FIG. 3d, 3e), the “activation of FXRα promoter 2 reporter with mutated overlapping AP-1 sites (site 3)” value is “two overlapping AP-1 sites were required for the activation”. For the same compound, in the data set with Erk [3], the “Erk phosphorylation in liver” value is recorded as “increased”. Further, the “ability of LNFPIII to suppress lipid synthesis in presence of PD98059” value in data set [4] is “dependent on Erk activity and FXRα”. For the same compound, the “lipogenesis in primary hepatocytes” value in data set [4] (20 μg/ml, 24 hours) was “significantly suppressed”. In addition, the “ability of LNFPIII to increase β-oxidation in presence of PD98059” value in [5] was “dependent on Erk activity and FXRα”. The “β-oxidation gene expression in primary hepatocytes” value with primary hepatocytes is “did not affect”. Also, in the data set on primary hepatocytes (setting [9]), the “FXRα1/α2 mRNA expression” value is recorded as “remained unchanged” and the “LXRα mRNA expression” value is “remained unchanged”. Further, in the data set on primary hepatocytes (setting [10]), the BSEP transcripts entry is “significantly upregulated”, the OATP transcripts entry was “significantly upregulated”, the PLTP transcripts entry was “significantly upregulated” and the SHP transcripts result is listed as “significantly upregulated”. Further, the FXRα3/α4 transcripts result in the data set on primary hepatocytes (FIG. 2d, primary hepatocytes treated for 24 hours, vs vehicle, p<0.05) is “significantly upregulated”.
On to `CC(=O)N[C@H]1[C@H](O[C@H]2[C@@H](O)[C@@H](CO)O[C@@H](O[C@H]3[C@H](O)[C@@H](O)C(O)O[C@@H]3CO)[C@@H]2O)O[C@H](CO)[C@@H](O[C@@H]2O[C@H](CO)[C@H](O)[C@H](O)[C@H]2O)[C@@H]1O` (mixture of isomers) [LNnT, lacto-N-neotetraose], for which, in data set [6], the “activity of the FXRα1/α2 promoter in a luciferase assay” value is recorded as “significantly increased”. Besides, the “lipogenesis in cultured primary hepatocytes” value in data set [4] is “blocked lipogenesis in cultured primary hepatocytes in a dose-dependent manner”.
Regarding `COc1cccc(-c2cc(=O)c3ccccc3o2)c1N` [PD98059, reference compound], in [2], the “responsiveness of the FXRα promoter 2 to LNFPIII in presence of PD98059” value is on record as “completely abolished”. Moreover, the “activation of Erk in response to LNFPIII in presence of PD98059” value with Erk [7] was “completely abolished”. In addition, the “ability of LNFPIII to suppress lipid synthesis in presence of PD98059” value in data set [4] is “completely abolished”. Besides, in [5], the “ability of LNFPIII to increase β-oxidation in presence of PD98059” value is reported as “completely abolished”.

The record behind these values is patent publication US20140315781A1, “METHODS OF TREATING FATTY LIVER DISEASE WITH HELMINTH-DERIVED GLYCAN-CONTAINING COMPOUNDS” (priority 2011, published 2014).
